Assay results taken from patent US20030134859A1 (SANKYO COMPANY, LIMITED, priority 2000, published 2003).
Like-named read-outs stand apart in the source and are kept apart here.

Legend:
Balb/c mice = test: Prevention of concanavalin A liver injury; type: in vivo, mouse; details: Mus musculus, po, 24 h, 10 mg/mL suspension at 10 mL/kg, 30 min prior to Con A, plasma 24 hr after Con A
Method: Five (5) Balb/c mice (female, 6-8 weeks old) per group were used. Liver injury was elicited in the mouse by injection of concanavalin A (Con A) dissolved in saline (2.0 mg/mL) into the tail vein at a volume of 10 mL/kg of the solution (Hepatology, 21, 190-198 (1995)).
The test compounds were suspended in distilled water containing 0.5% CMC, at a concentration of 10 mg/mL. This suspended solution was orally administered to the mouse at a volume of 10 mL/kg, 30 min prior to injection of Con A (group A).
Apart from this group, distilled water containing 0.5% CMC powder, instead of the test compound, was orally administered in the second group of mice (group B). In the 3rd group, nothing was given to the mice (group C).
Twenty four (24) hr after the injection of Con A, blood was collected from the abdominal aorta of the mice and the plasma was isolated while mixing with heparin. Activities of glutamic acid oxaloacetic acid transaminase (AST) and glutamic acid pyruvic acid transaminase (ALT) in the plasma were determined according to the methods described by Nagakawa et al. (J. Pharmacol. Exp. Ther., 264, 496-500 (1993)). From the values obtained inhibitory rates of the test compound against AST and ALT levels which had been increased by injection of Con A, were obtained based on the following equation.
Inhibitory Rate(%)={1−[(A−C)/(B−C)]}×100
A: The average level of AST or ALT in the group A
B: The average level of AST or ALT in the group B
C: The average level of AST or ALT in the group C

TNF-α production = test: Inhibitory activity against cytokine (TNF-α) production in LPS-stimulated RAW264.7 cells; type: cell-based, mouse; details: Mus musculus, RAW264.7, 15 h, 1 μM test compound, LPS 10 ng/mL
Method: The mouse monocyte/macrophage cell line, RAW264.7 (ATCC TIB71) was purchased from Dainippon Pharmaceutical Co., Ltd. The RAW264.7 cells were cultured in a CO2 incubator (37° C., 95% of humidity, 5% of CO2) by using the Dulbecco's modified Eagle's medium (DMEM medium; GIBCO, Cat. No. 11995-040) containing bovine fetal serum (the final concentration: 10% (v/v), MOREGATE, lot No. 474030), penicillin G (the final concentration: 50 units/mL […], GIBCO) and streptomycin (the final concentration: 20 μg/mL, GIBCO).
Sixty (60) μL of the RAW264.7 cell suspension (83,000 cells/mL) were plated into each well of a 96-well microplate (5,000 cells/well). After the cells were cultured for 4 hr in a CO2 incubator, 40 μL of DMEM medium containing 25 ng/mL of LPS (Sigma-Aldrich Japan K. K.) were added into each well (final concentration of LPS: 10 ng/mL). The test compound dissolved in DMSO at a concentration of 1 mM was diluted with DMEM medium by 20 times. Then 2 μL/well of the diluted solution were added to wells containing the plated cells (final concentration of the test compound: 1 μM). As the control, 2 μL/well of DMSO diluted with DMEM medium by 20 times were added to wells containing the plated cells either with LPS (final concentration: 10 ng/mL) or without LPS. After these cells were cultured in a CO2 incubator for 15 hr, the supernatant of the medium was recovered. The amount of mTNF-α in the medium supernatant was determined with a mouse TNF-α ELISA kit Quantikine M (R&D System), according to the experiment protocol attached with the kit.
The inhibitory activity of the test compound against TNF-α production was calculated according to the following equation.
A: The amount of TNF-α in the presence of test compound
B: The amount of TNF-α in the control without LPS
C: The amount of TNF-α in the control with 10 ng/mL of LPS
Inhibitory Activity of the Test Compound against TNF-α Production (%)=100−(A−B)/(C−B)×100

[1] = system: Mouse preadipocyte strain 3T3-L1; test: Inhibition of differentiation as an indication of acetic acid uptake; type: cell-based; details: Mus musculus, 3T3-L1, 0.1 μM test substance, control (0.01% dimethylsulfoxide) = 100%, read-out: Rate of Uptake (%) of [2-14C] acetic acid
Procedure, shortened: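 Differentiation is indexed by 1 hr [2-14C]acetic acid incorporation, measured by scintillation counting and given as uptake relative to 0.01% DMSO control (100%). Mouse 3T3-L1 preadipocytes, pre-grown 10 days, received 0.1 μM test substance throughout a 4-day insulin/IBMX/dexamethasone induction, followed by 2 days' maintenance culture.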

lenses = test: Cataract assessment: opacity of cultured lenses exposed to hydrogen peroxide; set-up: species or system rat; details: 100 nM test compound with 5 mM hydrogen peroxide; 24 hr; clear: 0, slightly opaque: 1, moderately opaque: 2
Method: The lenses were isolated from Sprague-Dawley rats (male, purchased from SLC Japan), and the lenses were pre-cultured in a medium (Medium-199: GIBCO BRL) for 3 hr and the lenses maintaining transparency were selected and used in the experiment. The crystalline lenses were cultured for 24 hr in the following 3 groups; 1) in Medium-199 (3 mL), 2) in Medium-199 (3 mL) containing hydrogen peroxide (final concentration: 5 mM) and 3) in Medium-199 (3 mL) containing the test compound (final concentration: 100 nM), DMSO (final concentration: 0.1% v/v) and hydrogen peroxide (final concentration: 5 mM). After finalising culturing, the opacity of the lens was scored based on the following criteria: clear: 0, slightly opaque: 1, moderately opaque: 2. Thus the improving effect of the test compound on cataracts was assessed.

[2] = read-out: Preventing rate against liver injury, ALT (%)
[3] = read-out: Preventing rate against liver injury, AST (%)

Row | Structure (SMILES) | inhibition in vivo at 10000 µg/mL, 100 mg/kg (Balb/c mice; [2]) [%] | inhibition in vivo at 10000 µg/mL, 100 mg/kg (Balb/c mice; [3]) [%] | inhibition at 1 µM (TNF-α production) [%] | activity at 0.1 µM [1] [%] | opacity of the lens (average score) (lenses)
1 | CN(C)c1ccc(-c2ccc(NC(=O)c3cc([N+](=O)[O-])ccc3Cl)cc2)cc1 [Example 53, N-[4-(4-Dimethylaminophenyl)phenyl]-(2-chloro-5-nitrophenyl)carboxamide] | 22 | 1.7 | 15.6 | 76.2 | 1.0
2 | CC(C)(C)c1cc(-c2csc(NC(=O)c3cc([N+](=O)[O-])ccc3Cl)n2)cc(C(C)(C)C)c1O [Example 139, N-[4-(3,5-di-tert-Butyl-4-hydroxyphenyl)thiazol-2-yl]-(2-chloro-5-nitrophenyl)carboxamide] | 54 | 48.4 | 42.7 | 59.2 | 1.0
